Here are results for six compounds from patent US20110053934A1, “COMPOUNDS AND METHODS OF TREATMENT” (GLAXOSMITHKLINE LLC, priority 2007, published 2011).

Read-outs that look alike come from different tables or passages of the source.

Test [1] deals with T1, ret kinase (intracellular portion of ret, amino acids 713-1072 of the short isoform) (Homo sapiens, UniProt P07949).
T1 sequence (P07949 713-1072 isoform P07949-2): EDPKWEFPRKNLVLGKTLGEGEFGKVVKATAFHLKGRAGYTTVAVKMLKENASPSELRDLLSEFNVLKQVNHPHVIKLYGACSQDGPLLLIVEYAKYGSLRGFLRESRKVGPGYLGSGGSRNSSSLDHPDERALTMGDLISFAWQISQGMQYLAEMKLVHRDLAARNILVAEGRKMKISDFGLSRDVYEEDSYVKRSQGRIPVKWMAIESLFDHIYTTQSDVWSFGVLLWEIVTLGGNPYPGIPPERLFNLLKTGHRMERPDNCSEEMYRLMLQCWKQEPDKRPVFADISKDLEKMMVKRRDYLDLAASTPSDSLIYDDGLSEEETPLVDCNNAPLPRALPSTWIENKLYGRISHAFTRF
Nature of the test: Ret kinase enzyme assay. The class given is biochemical. As to the method:
The ret kinase assay used the intracellular portion of ret (amino acids 713-1072 of the short isoform) produced in SF9 insect cells and purified on a nickel column. The assay was performed in a 45 μL volume with increasing concentrations of tyrosine kinase inhibitor (TKI) in triplicate in a 96-well plate format as follows: • 4.5 μL 500 mM Morpholinopropanesulfonic acid, pH 7.4 • 4.5 μL 100 μM adenosine triphosphate • 4.5 μL 250 mM MgCl2 • 1.0 μL γ-ATP^33 (1 microCi)(3000 Ci/mMol) • 2.04 (5 mg/ml) poly Glutamic acid-Tyrosine (Sigma (P-0275)) • 234H20 • 1.04 recombinant ret (100 ng) • 4.5 μL 10× Tyrosine kinase inhibitor
The components were incubated in triplicate for 30 minutes at room temperature within a 96-well plate in triplicate. The reaction was stopped by adding 45 μL 0.5% H3PO4 to each well. 75 μL of the reaction mixture was spotted onto phosphocellulose paper (Millipore, cat #MAPHN0B50) and was washed 3 times with 2004 0.5% H3PO4. Each phosphocellulase filter was transferred into a separate scintillation vial, 1 ml cytoscint fluid was added, and the sample counted on a Packard 1900TR liquid scintillation analyzer for 1 minute.
Concentrations of Example 1 tested in the ret enzyme kinase assay to determine the IC50 were 0, 0.5, 1, 5, 10, 50, 100, and 250 nM.

A further test has as its target c-src (Homo sapiens, UniProt P12931). Nature of the test: c-src kinase inhibition. The test is classed as biochemical. As to conditions: read-out: c-src, range of activity, pIC50 values (converted).
For a further test, the target named is VEFGR2 (Homo sapiens, UniProt P35968). Nature of the test: VEFGR2 kinase inhibition. The class given is biochemical. The note with it: read-out: VEFGR2, range of activity, pIC50 values (converted).
Chain of VEFGR2 (P35968 20-1356): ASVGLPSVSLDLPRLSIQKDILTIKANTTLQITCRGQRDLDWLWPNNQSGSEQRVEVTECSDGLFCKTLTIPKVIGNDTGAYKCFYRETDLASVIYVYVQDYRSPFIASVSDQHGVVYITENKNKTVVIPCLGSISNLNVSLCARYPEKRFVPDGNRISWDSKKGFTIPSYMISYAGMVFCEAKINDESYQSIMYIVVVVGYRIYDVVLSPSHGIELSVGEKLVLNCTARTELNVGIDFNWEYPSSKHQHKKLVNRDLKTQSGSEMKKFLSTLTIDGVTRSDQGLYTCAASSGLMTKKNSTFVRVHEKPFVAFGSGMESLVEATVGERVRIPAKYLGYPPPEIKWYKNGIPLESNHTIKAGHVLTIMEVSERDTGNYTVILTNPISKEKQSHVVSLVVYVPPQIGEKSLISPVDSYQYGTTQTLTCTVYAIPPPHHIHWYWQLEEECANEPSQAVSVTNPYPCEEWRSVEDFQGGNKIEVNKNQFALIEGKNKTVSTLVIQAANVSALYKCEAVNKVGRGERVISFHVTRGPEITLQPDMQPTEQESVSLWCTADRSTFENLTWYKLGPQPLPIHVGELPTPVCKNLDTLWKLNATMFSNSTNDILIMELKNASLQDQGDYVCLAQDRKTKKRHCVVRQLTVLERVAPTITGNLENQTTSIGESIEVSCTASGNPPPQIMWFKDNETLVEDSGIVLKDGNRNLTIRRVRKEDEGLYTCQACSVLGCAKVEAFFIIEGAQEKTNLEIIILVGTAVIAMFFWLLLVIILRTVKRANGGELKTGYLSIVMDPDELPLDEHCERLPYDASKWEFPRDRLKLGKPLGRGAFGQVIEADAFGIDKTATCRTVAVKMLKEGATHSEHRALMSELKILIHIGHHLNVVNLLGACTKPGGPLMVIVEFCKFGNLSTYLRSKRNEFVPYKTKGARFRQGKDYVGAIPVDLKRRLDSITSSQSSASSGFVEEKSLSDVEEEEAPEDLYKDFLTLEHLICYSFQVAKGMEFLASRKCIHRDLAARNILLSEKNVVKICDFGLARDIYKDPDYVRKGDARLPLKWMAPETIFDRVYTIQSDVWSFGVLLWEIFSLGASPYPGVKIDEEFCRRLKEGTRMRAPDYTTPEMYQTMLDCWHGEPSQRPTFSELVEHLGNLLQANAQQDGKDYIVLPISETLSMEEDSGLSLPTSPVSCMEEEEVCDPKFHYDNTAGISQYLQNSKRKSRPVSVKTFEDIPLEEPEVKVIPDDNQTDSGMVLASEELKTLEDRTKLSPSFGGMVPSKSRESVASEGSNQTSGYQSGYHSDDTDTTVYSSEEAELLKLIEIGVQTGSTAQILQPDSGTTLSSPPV
Test [2] has as its system TT cells, a medullary thyroid cancer cell line with constitutively activated ret. Nature of the test: MTT assay, TT cell proliferation. As to conditions: Homo sapiens, 168 hours with compound. The test is classed as cell-based. How it is done: The potency of the compound of the invention was tested for its ability to inhibit cell proliferation and cell viability.
[3] abbreviates: ret kinase enzyme assay, read-out: Ret, range of activity, pIC50 values (converted).

Chain of c-src (P12931 whole entry, species assumed): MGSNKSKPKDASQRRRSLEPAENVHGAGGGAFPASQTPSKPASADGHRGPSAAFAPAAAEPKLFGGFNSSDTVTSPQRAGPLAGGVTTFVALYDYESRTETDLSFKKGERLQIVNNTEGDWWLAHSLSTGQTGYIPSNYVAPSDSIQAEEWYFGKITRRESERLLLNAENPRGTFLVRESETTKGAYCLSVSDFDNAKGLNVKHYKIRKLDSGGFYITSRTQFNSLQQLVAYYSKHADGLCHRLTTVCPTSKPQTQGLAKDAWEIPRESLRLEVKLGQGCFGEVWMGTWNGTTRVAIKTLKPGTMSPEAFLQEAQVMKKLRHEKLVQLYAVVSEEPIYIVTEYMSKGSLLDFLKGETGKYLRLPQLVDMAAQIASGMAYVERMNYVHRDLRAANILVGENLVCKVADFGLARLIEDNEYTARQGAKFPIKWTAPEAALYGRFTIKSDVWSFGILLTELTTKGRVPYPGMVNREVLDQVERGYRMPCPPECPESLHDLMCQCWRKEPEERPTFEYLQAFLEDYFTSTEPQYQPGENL

In the case of `Oc1cccc(Nc2ccnc3cc(-c4ccccn4)ccc23)c1` [Example 1, 3-{[7-(2-pyridinyl)-4-quinolinyl]amino}phenol], the IC50 (in test [1] (setting [3]); on c-src) was below 0.01 µM throughout.
With `Oc1cc(Nc2ccnc3cc(-c4cc5ccccc5o4)ccc23)ccc1Br` [Example 3, 5-{[7-(1-benzofuran-2-yl)-4-quinolinyl]amino}-2-bromophenol], the IC50 in test [1] (setting [3]) is 0.01 to 0.1 µM; at c-src it was 0.01 to 0.1 µM; on VEFGR2 it was below 0.01 µM.
Regarding `Oc1cc(Nc2ccnc3cc(-c4cccc(CNCCN5CCOCC5)c4)ccc23)c(F)cc1Cl` [Example 4, 2-chloro-4-fluoro-5-({7-[3-({[2-(4-morpholinyl)ethyl]amino}methyl)phenyl]-4-quinolinyl}amino)phenol], the IC50 in test [1] was 0.01 to 0.1 µM; on c-src, below 0.01 µM; at VEFGR2, below 0.01 µM.
`CS(=O)(=O)c1ccc2nccc(Nc3cc(O)c(F)cc3Cl)c2c1` [Example 6, 4-chloro-2-fluoro-5-{[6-(methysulfonuyl)-4-quinolinyl]amino}phenol]: the IC50 in test [1] (setting [3]) is below 0.01 µM; in test [2], below 1 µM.
For `OCc1nc(-c2ccc3c(Nc4cc(O)c(F)cc4Cl)ccnc3c2)cs1` [Example 7, 4-chloro-2-fluoro-5-({7-[2-(hydroxymethyl)-1,3-thiazol-4-yl]-4-quinolinyl}amino)phenol], the IC50 in test [1] (setting [3]) was 0.01 to 0.1 µM; at c-src it was below 0.01 µM.
As for `Cc1ccc(O)cc1Nc1ccnc2ccc(C(=O)NC(C)C)cc12` [Example 10], the values for the IC50 (in test [1] (setting [3]); at VEFGR2) were 0.01 to 0.1 µM and 0.1 to 1 µM, respectively.
